Reference: PubChem BioAssay (NCI)
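Results reflect a 48-hour exposure of cells in 96-well plates to compound at five concentrations. The concentration for 50% growth inhibition is given as GI50. TGI marks complete inhibition of growth.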

Tests used:
Assay in all cases: NCI anticancer screen, dose series, 48 h
[1] = system: 786-0 renal
[2] = system: A498 renal
[3] = system: A549 NSCLC
[4] = system: ACHN renal
[5] = system: BT-549 breast
[6] = system: CAKI-1 renal
[7] = system: CCRF-CEM leukemia
[8] = system: COLO 205 colon
[9] = system: DU-145 prostate
[10] = system: EKVX NSCLC
[11] = system: HCC-2998 colon
[12] = system: HCT-116 colon
[13] = system: HCT-15 colon
[14] = system: HL-60(TB) leukemia
[15] = system: HOP-62 NSCLC
[16] = system: HOP-92 NSCLC
[17] = system: HS 578T breast
[18] = system: HT29 colon
[19] = system: IGROV1 ovarian
[20] = system: K-562 leukemia
[21] = system: KM12 colon
[22] = system: LOX IMVI melanoma
[23] = system: M14 melanoma
[24] = system: MALME-3M melanoma
[25] = system: MCF7 breast
[26] = system: MDA-MB-231 breast
[27] = system: MDA-MB-435
[28] = system: MDA-MB-468 breast
[29] = system: MOLT-4 leukemia
[30] = system: NCI-H226 lung

O=C1Nc2cc(-c3ccc(NS(=O)(=O)c4ccc(-c5ccccc5)cc4)cc3)ccc2/C1=C/c1ccc[nH]1
GI50 [1]: 3.91 µM | TGI [1]: 13.9 µM | GI50 [2]: 12.6 µM | TGI [2]: 25.1 µM | GI50 [3]: 1.82 µM | TGI [3]: 4.86 µM | GI50 [4]: 6.16 µM | TGI [4]: 18.7 µM | GI50 [5]: 2.49 µM | TGI [5]: 7.75 µM | GI50 [6]: 5.64 µM | TGI [6]: 18.4 µM | GI50 [7]: 5.82 µM | TGI [7]: 18.6 µM | GI50 [8]: 3.7 µM | TGI [8]: 14 µM | GI50 [9]: 2.09 µM | TGI [9]: 4.59 µM | GI50 [10]: 0.225 µM | TGI [10]: 8.94 µM | GI50 [11]: 4.88 µM | TGI [11]: 28.4 µM | GI50 [12]: 3.28 µM | TGI [12]: 11.2 µM | GI50 [13]: 2.26 µM | TGI [13]: 7.86 µM | GI50 [14]: 7.67 µM | TGI [14]: 31.7 µM | GI50 [15]: 8.59 µM | TGI [15]: 21.8 µM | GI50 [16]: 2.2 µM | TGI [16]: 7.22 µM | GI50 [17]: 12.2 µM | TGI [17]: 56.7 µM | GI50 [18]: 2.42 µM | TGI [18]: 6.71 µM | GI50 [19]: 8.34 µM | TGI [19]: 22.2 µM | GI50 [20]: 3.8 µM | TGI [20]: 16.6 µM | GI50 [21]: 2.48 µM | TGI [21]: 18.7 µM | GI50 [22]: 2.59 µM | TGI [22]: 6.82 µM | GI50 [23]: 4.7 µM | TGI [23]: 16.8 µM | GI50 [24]: 2.79 µM | TGI [24]: 9.7 µM | GI50 [25]: 0.0746 µM | TGI [25]: 1.54 µM | GI50 [26]: 2.96 µM | TGI [26]: 11.6 µM | GI50 [27]: 5.71 µM | TGI [27]: 21 µM | GI50 [28]: 0.0402 µM | TGI [28]: 1.04 µM | GI50 [29]: 3.88 µM | TGI [29]: 17.7 µM | GI50 [30]: 1.9 µM
